Data set [1] has as its system LNCaP tumor-bearing CB17-SCID mice. Kind of data set: Biodistribution studies 24 h p.i. Type of data set: in vivo. The conditions noted are these: 177Lu-labelled, mean±SD, n=4-5; for biodistribution: tumor: LNCaP xenograft; for biodistribution: blood: i.v. tail vein. The protocol: All animal experiments were conducted in accordance with general animal welfare regulations in Germany (German animal protection act, as amended on 18 May 2018, Art. 141 G v. 29.3.2017|626, approval no. 55.2-1-54-2532-71-13) and the institutional guidelines for the care and use of animals. To establish tumor xenografts, LNCaP cells (approx. 10^7 cells) were suspended in 200 μL of a 1:1 mixture (v/v) of DMEM F-12 and Matrigel (BD Biosciences, Germany), and inoculated subcutaneously onto the right shoulder of 6-8 weeks old CB17-SCID mice (Charles River, Sulzfeld, Germany). Mice were used for experiments when tumors had grown to a diameter of 5-10 mm (3-6 weeks after inoculation).
Approximately 5-10 MBq (0.1-0.2 nmol) of the radioactive-labelled PSMA inhibitors were injected into the tail vein of LNCaP tumor-bearing male CB-17 SCID mice and sacrificed after 24 h post injection. Selected organs were removed, weighted and measured in a γ-counter.
FIG. 10 and the following table show the biodistribution data 24 h p.i. of ^177Lu-labeled compounds in LNCaP tumor-bearing CB17-SCID mice. Data are expressed as mean±SD (n=4-5).

The test system of a further data set is LNCaP cells. The data set can be described thus: Internalization studies on LNCaP cells. It is filed as cell-based. The conditions noted are these: 177Lu-labelled, c=1.0 nM, 1 hour, 37 °C; % of reference ligand ([125I]I-BA)KuE (c=0.2 nM); corrected for non-specific binding (PMPA); mean±SD, n=3-6. The protocol: PSMA-positive LNCAP cells (300265; Cell Lines Service, Eppelheim, Germany) were cultivated in Dulbecco modified Eagle medium/Nutrition Mixture F-12 with Glutamax (1:1) (DMEM-F12, Biochrom, Berlin, Germany) supplemented with fetal bovine serum (10%, FBS Zellkultur, Berlin, Germany) and kept at 37° C. in a humidified CO2 atmosphere (5%). A mixture of trypsin and EDTA (0.05%, 0.02%) in PBS (Biochrom) was used in order to harvest cells. Cells were counted with a Neubauer hemocytometer (Paul Marienfeld, Lauda-Königshofen, Germany).
For internalization studies, LNCaP cells were harvested 24±2 hours before the experiment and seeded in poly-L-lysine coated 24-well plates (1.25×10^5 cells in 1 mL/well, Greiner Bio-One, Kremsmünster, Austria). After removal of the culture medium, the cells were washed once with 500 μL DMEM-F12 (5% BSA) and left to equilibrate for at least 15 min at 37° C. in 200 μL DMEM-F12 (5% BSA). Each well was treated with either 25 μL of either DMEM-F12 (5% BSA, control) or 25 μL of a 100 μM PMPA (2-(Phosphonomethyl)-pentandioic acid, Tocris Bioscience, Bristol, UK) solution in PBS, for blockade. Next, 25 μL of the radioactive-labelled PSMA inhibitor (10.0 nM in PBS) was added and the cells were incubated at 37° C. for 60 min. The experiment was terminated by placing the 24-well plate on ice for 3 min and consecutive removal of the medium. Each well was carefully washed with 250 μL of ice-cold HBSS. Both fractions from the first steps, representing the amount of free radioligand, were combined. Removal of surface bound activity was accomplished by incubation of the cells with 250 μL of ice-cold PMPA (10 μM in PBS) solution for 5 min and rinsed again with another 250 μL of ice-cold PBS. The internalized activity was determined by incubation of the cells in 250 μL 1 M aqueous NaOH for at least 10 min. The obtained fractions were combined with those of the subsequent wash step with 250 μL 1 M aqueous NaOH. Each experiment (control and blockade) was performed in triplicate. Free, surface bound and internalized activity was quantified in a γ-counter. All internalization studies were accompanied by external reference studies, using ([^125I]l-BA)KuE (c=0.2 nM), which were performed analogously. Data were corrected for non-specific binding and normalized to the specific-internalization observed for the radioiodinated reference compound.
Data is corrected for non-specific binding (10 μmol PMPA) and expressed as mean±SD (n=3-6): […]

Data set [2] in a line: Octanol-water partition coefficient. Type of data set: physicochemical. The conditions noted are these: 177Lu-labelled; n-octanol/PBS pH 7.4; n=6. The protocol:
Approximately 1 MBq of the labelled tracer was dissolved in 1 mL of a 1:1 mixture (v/v) of PBS (pH 7.4) and n-octanol in a reaction vial (1.5 mL). After vigorous mixing of the suspension for 3 minutes at room temperature, the vial was centrifuged at 15000 g for 3 minutes (Biofuge 15, Heraeus Sepatech, Osterode, Germany) and 100 μL aliquots of both layers were measured in a gamma counter. The experiment was repeated at least six times.
FIG. 5 and the following table summarize log PO/W values of the synthesized radiolabeled ^177Lu-PSMA ligand compounds and ^177Lu-references (n=6).

For `O=C(O)CC[C@H](NC(=O)N[C@@H](CCCCNC(=O)[C@H](Cc1ccc2ccccc2c1)NC(=O)[C@H]1CC[C@H](CNC(=O)CN2CCN(CC(=O)O)CCN(CC(=O)O)CCN(CC(=O)O)CC2)CC1)C(=O)O)C(=O)O` [PSMA-617, reference compound], in data set [1], the “biodistribution: tumor” value turned out to be 7.5 ± 0.9 % ID/g, the “biodistribution: blood” value is given as 0.006 ± 0.01 % ID/g, the “biodistribution: adrenals” value is 0.13 ± 0.12 % ID/g and the “biodistribution: bone” value came to 0.03 ± 0.01 % ID/g. In addition, in data set [1], the “biodistribution: heart” value stood at 0.01 ± 0.01 % ID/g, the “biodistribution: intestine” value is listed as 0.12 ± 0.08 % ID/g, the “biodistribution: kidneys” value turned out to be 1.4 ± 0.4 % ID/g and the “biodistribution: liver” value turned out to be 0.12 ± 0.06 % ID/g. Moreover, in data set [1], the “biodistribution: lung” value turned out to be 0.04 ± 0.01 % ID/g, the “biodistribution: muscle” value is given as 0.01 ± 0.01 % ID/g, the “biodistribution: pancreas” value is reported as 0.01 ± 0.01 % ID/g and the “biodistribution: spleen” value is recorded as 0.08 ± 0.01 % ID/g. Moreover, in data set [1], the “biodistribution: stomach” value was determined as 0.02 ± 0.01 % ID/g. Also, the “Internalization (% IBA)” value in the data set on LNCaP cells amounted to 160 ± 2 % IBA. Besides, the “Log PO/W” value in data set [2] is listed as −4.1 ± 0.1.

Take `CC(C)(C)[Si](F)(c1ccc(C(=O)NC[C@@H](NC(=O)CC[C@@H](C(=O)O)N2CCN(CC(=O)O)CCN(CC(=O)O)CCN(CC(=O)O)CC2)C(=O)N[C@H](CCCCNC(=O)CCC(=O)NCCC[C@@H](NC(=O)CC[C@H](NC(=O)N[C@@H](CCC(=O)O)C(=O)O)C(=O)O)C(=O)O)C(=O)O)cc1)C(C)(C)C` [rhPSMA-7.3, reference compound]: in data set [1], the “biodistribution: tumor” value worked out at 7.6 ± 0.5 % ID/g, the “biodistribution: blood” value is given as 0.004 ± 0.002 % ID/g, the “biodistribution: bone” value is 0.02 ± 0.01 % ID/g and the “biodistribution: heart” value was found to be 0.03 ± 0.01 % ID/g. In data set [1], the “biodistribution: intestine” value is 0.12 ± 0.03 % ID/g, the “biodistribution: kidneys” value is recorded as 13.2 ± 6.7 % ID/g, the “biodistribution: liver” value was 0.22 ± 0.03 % ID/g and the “biodistribution: lung” value was 0.06 ± 0.02 % ID/g. Moreover, in data set [1], the “biodistribution: muscle” value was found to be 0.012 ± 0.004 % ID/g, the “biodistribution: pancreas” value is given as 0.02 ± 0.01 % ID/g, the “biodistribution: parotis” value is 0.22 ± 0.16 % ID/g and the “biodistribution: spleen” value was determined as 0.51 ± 0.22 % ID/g. In addition, in data set [1], the “biodistribution: stomach” value came out at 0.05 ± 0.01 % ID/g and the “biodistribution: submandibularis” value is given as 0.05 ± 0.02 % ID/g. Besides, the “Internalization (% IBA)” value with LNCaP cells is 162 ± 14 % IBA. In addition, the “Log PO/W” value in data set [2] is given as −3.8 ± 0.1.

Regarding `CC(C)(C)[Si](F)(c1ccc(C(=O)NC[C@@H](NC(=O)CN2CCN(CC(=O)O)CCN(CC(=O)O)CCN(CC(=O)O)CC2)C(=O)N[C@H](CCCCNC(=O)CCC(=O)NCCC[C@@H](NC(=O)CC[C@H](NC(=O)N[C@@H](CCC(=O)O)C(=O)O)C(=O)O)C(=O)O)C(=O)O)cc1)C(C)(C)C` [rhPSMA-10, reference compound], in data set [1], the “biodistribution: tumor” value stood at 10.2 ± 2.8 % ID/g, the “biodistribution: blood” value worked out at 0.004 ± 0.001 % ID/g, the “biodistribution: adrenals” value came to 0.09 ± 0.06 % ID/g and the “biodistribution: bone” value came to 0.02 ± 0.01 % ID/g. In addition, in data set [1], the “biodistribution: heart” value was 0.03 ± 0.01 % ID/g, the “biodistribution: intestine” value is 0.11 ± 0.06 % ID/g, the “biodistribution: kidneys” value is reported as 4.1 ± 2.3 % ID/g and the “biodistribution: liver” value is on record as 0.28 ± 0.13 % ID/g. Besides, in data set [1], the “biodistribution: lung” value is on record as 0.05 ± 0.01 % ID/g, the “biodistribution: muscle” value is 0.010 ± 0.003 % ID/g, the “biodistribution: pancreas” value was 0.02 ± 0.01 % ID/g and the “biodistribution: spleen” value is 0.22 ± 0.11 % ID/g. Further, the “biodistribution: stomach” value in data set [1] is 0.04 ± 0.01 % ID/g. In addition, the “Internalization (% IBA)” value in the data set with LNCaP cells is given as 231 ± 57 % IBA. Moreover, the “Log PO/W” value in data set [2] is −3.6 ± 0.1.

Values taken from patent US20230277698A1, “SILICON-CONTAINING LIGAND COMPOUNDS” (Technische Universität München, priority 2020, published 2023).
